Measurements reported in patent US10881642B2, “Autophagy enhancer and use thereof” (Industry-Academic Cooperation Foundation, Yonsei University, priority 2016, dated 2021).
Peptide text beside a SMILES is read from it. * marks the point of attachment. βNA = c1ccc2cc(N*)ccc2c1

Test system: HeLa cells
Assay: GCaMP3-ML1 lysosomal Ca2+ release imaging
Format: cell-based
Details: GPN 200 μM; ionomycin 1 μM
Description: HeLa cells were transfected with perilysosomal GCaMP3-ML1 calcium probe, and Ratiometric image (474 and 410 nm excitation) was obtained.
GCaMP3 Ca2+ Imaging. HeLa cells were grown on 15 mm coverslips and transfected with plasmid encoding the perilysosomal-localized ML1-GCaMP3 calcium probes.

| Compound | lysosomal Ca2+ release |
| --- | --- |
| NCC(=O)N[C@@H](Cc1ccccc1)C(=O)Nc1ccc2ccccc2c1 [GPN] (H-Gly-Phe-βNA) | induced lysosomal Ca2+ release |
| C[C@H](CCC(=O)O)C[C@H](C)C[C@H](C)C(=O)/C=C(\O)[C@H](C)C[C@H](C)C/C=C/[C@@H](C)[C@@H](O)[C@@H](C)[C@@H](O)C[C@@H]1CC[C@@](C)([C@H]2CC[C@@](C)([C@@H](C)O)O2)O1 [ionomycin] | induced lysosomal Ca2+ release |
